Assay results taken from PMC12583774 (Nature Communications, 2025).

Target: SARS-CoV-2 NSP14 (Severe acute respiratory syndrome coronavirus 2, UniProt P0DTD1)
Type: binding

Question: For `Nc1nc2c(ncn2[C@@H]2O[C@H](COP(=O)(O)OP(=O)(O)OP(=O)(O)OC[C@H]3O[C@@H](n4cnc5c(=O)[nH]c(N)nc54)[C@H](O)[C@@H]3O)[C@@H](O)[C@H]2O)c(=O)[nH]1` [GpppG, G(5′)ppp(5′)G RNA Cap Structure Analog], which Tm changes is on record?
Answer: negligible Tm changes

Question: Which “Tm shift, maximum reached” value does the source give for `Nc1ncnc2c1ncn2[C@@H]1O[C@H](CSCC[C@H](N)C(=O)O)[C@@H](O)[C@H]1O` [SAH] here?
Answer: ≤ 10.0 °C

Question: With `C[S+](CC[C@H](N)C(=O)[O-])C[C@H]1O[C@@H](n2cnc3c(N)ncnc32)[C@H](O)[C@@H]1O` (stereo partly shown) [SAM, S-adenosylmethionine] as the compound, how does the Tm changes read?
Answer: negligible Tm changes

Question: Which Tm changes does the source give for `Cn1c[n+]([C@@H]2O[C@H](COP(=O)(O)OP(=O)([O-])OP(=O)(O)OC[C@H]3O[C@@H](n4cnc5c(=O)[nH]c(N)nc54)[C@H](O)[C@@H]3O)[C@@H](O)[C@H]2O)c2nc(N)[nH]c(=O)c21` [m7GpppG] here?
Answer: negligible Tm changes
